The target in one data set is human 5-HT2A receptor (Homo sapiens, UniProt P28223). The data set can be described thus: Radioligand binding assay, 5-HT2A receptor. As to conditions: radioligand displacement, transfected HEK-293 cells; read-out: Receptor binding affinity (Ki), 5-HT2A.
Another data set concerns the target T1, human 5-HT2B receptor (Homo sapiens, UniProt P41595).
T1 construct: expressed in transfected cells; host or cells: HEK-293
Put plainly: Radioligand binding assay, 5-HT2B receptor. The following applies: radioligand displacement, transfected HEK-293 cells; read-out: Receptor binding affinity (Ki), 5-HT2B. As to the method:
(§1) The affinity of compounds for the human dopamine D2, D3, D4, 5-HT2A, 5-HT2B, 5-HT2C, 5-HT6, 5-HT7, H1, α1A, and α1B receptors in transfected HEK-293 cells was determined using a radioligand binding assay. Cell membrane homogenates were incubated in the absence or presence of the test compound in a buffer. Nonspecific binding was measured in the presence of the standard reference compound. Following incubation, samples were rapidly filtered under a vacuum through glass fibre filters (GF/B, Packard) presoaked with 0.3% PEI and rinsed several times with ice-cold 50 mM Tris-HCl using a 96-sample cell harvester (Unifilter, Packard). Filters were dried and then radioactivity was counted in a scintillation counter (Topcount, Packard) using a scintillation cocktail (Microscint 0, Packard). The results are expressed as percent inhibition of the specific binding of the radioligand in the control. The standard reference compound was tested in each experiment at several concentrations to obtain a competition curve from which its Ki was calculated.

Another data set deals with T2, human 5-HT2C receptor (Homo sapiens, UniProt P28335).
T2 construct: expressed in transfected cells; host or cells: HEK-293
T2 sequence (P28335 33-458): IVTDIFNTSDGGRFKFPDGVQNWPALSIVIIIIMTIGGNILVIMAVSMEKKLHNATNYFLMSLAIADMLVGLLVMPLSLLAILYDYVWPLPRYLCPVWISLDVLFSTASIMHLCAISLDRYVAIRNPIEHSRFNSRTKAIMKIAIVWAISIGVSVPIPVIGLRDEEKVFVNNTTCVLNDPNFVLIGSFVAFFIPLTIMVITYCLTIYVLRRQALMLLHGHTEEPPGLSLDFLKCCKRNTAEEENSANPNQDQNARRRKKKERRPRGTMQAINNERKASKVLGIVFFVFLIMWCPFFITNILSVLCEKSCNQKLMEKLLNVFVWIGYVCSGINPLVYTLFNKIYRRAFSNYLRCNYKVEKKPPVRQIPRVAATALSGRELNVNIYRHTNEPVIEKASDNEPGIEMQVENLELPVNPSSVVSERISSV
The data set can be described thus: Radioligand binding assay, 5-HT2C receptor. The following applies: radioligand displacement, transfected HEK-293 cells; read-out: Receptor binding affinity (Ki), 5-HT2C. As for the experimental part:
as §1

The target in a further data set is T3, human 5-HT6 receptor (Homo sapiens, UniProt P50406).
T3 construct: expressed in transfected cells; host or cells: HEK-293
The data set can be described thus: Radioligand binding assay, 5-HT6 receptor. As to conditions: radioligand displacement, transfected HEK-293 cells; read-out: Receptor binding affinity (Ki), 5-HT6. As for the experimental part: as §1

Another data set has as its target T4, human 5-HT7 receptor (Homo sapiens, UniProt P34969).
T4 construct: expressed in transfected cells; host or cells: HEK-293
The data set can be described thus: Radioligand binding assay, 5-HT7 receptor. The following applies: radioligand displacement, transfected HEK-293 cells; read-out: Receptor binding affinity (Ki), 5-HT7. As for the experimental part:
as §1

The next data set addresses T5, human α1A receptor (Homo sapiens, UniProt P35348).
T5 construct: expressed in transfected cells; host or cells: HEK-293
T5 sequence (P35348 1-466): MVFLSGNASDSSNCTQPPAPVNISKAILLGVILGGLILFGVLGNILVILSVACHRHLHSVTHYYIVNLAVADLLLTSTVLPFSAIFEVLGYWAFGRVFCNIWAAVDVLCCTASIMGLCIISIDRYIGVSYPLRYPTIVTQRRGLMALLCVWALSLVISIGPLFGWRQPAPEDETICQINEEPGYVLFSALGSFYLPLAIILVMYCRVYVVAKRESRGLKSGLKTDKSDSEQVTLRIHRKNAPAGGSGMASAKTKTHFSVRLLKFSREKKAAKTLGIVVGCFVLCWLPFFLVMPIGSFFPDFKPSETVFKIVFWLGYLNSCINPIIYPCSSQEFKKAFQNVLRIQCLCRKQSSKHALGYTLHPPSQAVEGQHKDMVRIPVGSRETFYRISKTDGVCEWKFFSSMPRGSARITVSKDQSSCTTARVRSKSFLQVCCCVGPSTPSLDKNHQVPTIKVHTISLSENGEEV
The data set can be described thus: Radioligand binding assay, α1A receptor. The following applies: radioligand displacement, transfected HEK-293 cells; read-out: Receptor binding affinity (Ki), α1A. As to the method:
as §1

The target of a further data set is T6, human α1B receptor (Homo sapiens, UniProt P35368).
T6 construct: expressed in transfected cells; host or cells: HEK-293
T6 sequence (P35368 1-520): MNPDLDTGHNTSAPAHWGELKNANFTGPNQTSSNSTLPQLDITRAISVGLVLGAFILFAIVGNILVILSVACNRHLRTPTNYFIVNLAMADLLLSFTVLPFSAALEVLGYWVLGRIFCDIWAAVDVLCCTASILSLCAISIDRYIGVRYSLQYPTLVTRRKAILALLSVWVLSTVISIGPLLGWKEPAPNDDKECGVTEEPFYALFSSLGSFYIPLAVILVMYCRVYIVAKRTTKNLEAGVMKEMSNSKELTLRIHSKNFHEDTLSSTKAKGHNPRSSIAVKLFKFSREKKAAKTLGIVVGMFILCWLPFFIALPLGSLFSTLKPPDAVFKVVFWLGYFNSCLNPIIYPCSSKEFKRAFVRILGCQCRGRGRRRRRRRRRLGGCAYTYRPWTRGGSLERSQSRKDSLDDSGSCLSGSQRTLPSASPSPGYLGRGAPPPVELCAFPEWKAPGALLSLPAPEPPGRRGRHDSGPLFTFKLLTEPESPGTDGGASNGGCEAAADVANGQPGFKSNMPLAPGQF
Put plainly: Radioligand binding assay, α1B receptor. The following applies: radioligand displacement, transfected HEK-293 cells; read-out: Receptor binding affinity (Ki), α1B. As to the method:
as §1

For the next data set, the target named is T7, human H1 receptor (Homo sapiens, UniProt P35367).
T7 construct: expressed in transfected cells; host or cells: HEK-293
Put plainly: Radioligand binding assay, H1 receptor. As to conditions: radioligand displacement, transfected HEK-293 cells; read-out: Receptor binding affinity (Ki), H1. As for the experimental part:
as §1

Data set [1] has as its system 5-HTP-induced head twitches in rats. The data set can be described thus: 5-HTP-induced head twitch. As to conditions: 5-HTP 320 mg/kg i.p., 40–70 min after injection, mean ± S.E.M. It is filed as in vivo, SD rats. As to the method: SD rats (200–250 g, 8 animals/ group) were housed in the test room for at least 1 h before the experiment. […] Then, all animals were intraperitoneally injected with 0.9% saline or 5-HTP (320 mg/kg) 40 min before the test. The number of head twitches was recorded during a period of 40–70 min after intraperitoneal injection.

The test system of the next data set is mice. The data set can be described thus: Forelimb catalepsy in mice. The following applies: NIH, mouse, in vivo, po, 1 h. As to the method: Then each mouse was positioned such that both front paws rested on a […] diameter steel rod (covered with non-slippery tape) placed 3.5 cm above the surface of the bench. The period of time that each mouse maintained this position was recorded. The experiment was repeated at least 10 times. Finally, the longest period of catalepsy for each mouse was recorded.

Each structure is given as a SMILES string.

T3 sequence (P50406 whole entry): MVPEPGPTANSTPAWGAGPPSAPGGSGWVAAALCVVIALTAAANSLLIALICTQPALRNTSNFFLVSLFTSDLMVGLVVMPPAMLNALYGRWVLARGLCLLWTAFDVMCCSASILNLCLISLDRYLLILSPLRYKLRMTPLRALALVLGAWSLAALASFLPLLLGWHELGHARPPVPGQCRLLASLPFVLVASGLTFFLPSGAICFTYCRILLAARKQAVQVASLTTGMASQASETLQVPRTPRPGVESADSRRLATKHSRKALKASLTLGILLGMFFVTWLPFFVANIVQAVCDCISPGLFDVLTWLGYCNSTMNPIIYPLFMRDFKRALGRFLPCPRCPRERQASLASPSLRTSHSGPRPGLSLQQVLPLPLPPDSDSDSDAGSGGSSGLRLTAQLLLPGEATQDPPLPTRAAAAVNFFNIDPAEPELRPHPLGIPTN
T7 sequence (P35367 whole entry): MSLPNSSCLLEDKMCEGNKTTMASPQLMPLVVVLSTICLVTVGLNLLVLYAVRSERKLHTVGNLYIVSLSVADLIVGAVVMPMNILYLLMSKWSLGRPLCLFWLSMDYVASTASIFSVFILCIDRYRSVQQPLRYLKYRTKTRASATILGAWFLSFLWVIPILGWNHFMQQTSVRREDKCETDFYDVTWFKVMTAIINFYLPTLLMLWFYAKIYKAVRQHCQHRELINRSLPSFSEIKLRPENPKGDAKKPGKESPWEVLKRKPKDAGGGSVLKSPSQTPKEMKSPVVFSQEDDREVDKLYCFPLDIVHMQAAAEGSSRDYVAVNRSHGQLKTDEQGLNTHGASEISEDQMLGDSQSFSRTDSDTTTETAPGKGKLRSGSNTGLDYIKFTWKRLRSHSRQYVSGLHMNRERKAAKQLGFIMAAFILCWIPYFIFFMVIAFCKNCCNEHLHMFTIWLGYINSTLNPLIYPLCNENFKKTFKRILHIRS
T4 sequence (P34969 whole entry): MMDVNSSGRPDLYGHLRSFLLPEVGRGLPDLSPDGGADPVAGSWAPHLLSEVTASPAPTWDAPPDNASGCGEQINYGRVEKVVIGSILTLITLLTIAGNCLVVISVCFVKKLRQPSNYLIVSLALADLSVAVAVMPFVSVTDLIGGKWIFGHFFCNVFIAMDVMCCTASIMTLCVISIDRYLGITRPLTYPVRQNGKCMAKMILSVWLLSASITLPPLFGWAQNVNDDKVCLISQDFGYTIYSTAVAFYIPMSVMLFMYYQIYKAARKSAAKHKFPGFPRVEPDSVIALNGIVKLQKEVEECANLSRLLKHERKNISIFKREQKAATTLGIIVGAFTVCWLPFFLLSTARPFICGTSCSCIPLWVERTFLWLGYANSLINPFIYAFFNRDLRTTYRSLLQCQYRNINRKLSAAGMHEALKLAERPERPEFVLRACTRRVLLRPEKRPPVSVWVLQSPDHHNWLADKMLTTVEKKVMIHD
Chain of human 5-HT2A receptor (P28223 whole entry): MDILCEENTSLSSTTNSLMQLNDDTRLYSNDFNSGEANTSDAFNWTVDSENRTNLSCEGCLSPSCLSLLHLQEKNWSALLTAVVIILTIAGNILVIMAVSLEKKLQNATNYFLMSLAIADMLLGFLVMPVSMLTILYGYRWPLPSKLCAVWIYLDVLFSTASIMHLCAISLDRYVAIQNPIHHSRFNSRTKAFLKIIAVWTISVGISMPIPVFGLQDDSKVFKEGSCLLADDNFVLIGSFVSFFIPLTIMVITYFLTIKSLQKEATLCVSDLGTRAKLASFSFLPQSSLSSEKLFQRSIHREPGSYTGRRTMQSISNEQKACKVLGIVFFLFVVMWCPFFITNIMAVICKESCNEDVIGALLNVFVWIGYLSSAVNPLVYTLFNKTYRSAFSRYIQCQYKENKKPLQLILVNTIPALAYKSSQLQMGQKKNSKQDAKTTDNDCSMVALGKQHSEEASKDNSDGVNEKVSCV
T1 sequence (P41595 whole entry): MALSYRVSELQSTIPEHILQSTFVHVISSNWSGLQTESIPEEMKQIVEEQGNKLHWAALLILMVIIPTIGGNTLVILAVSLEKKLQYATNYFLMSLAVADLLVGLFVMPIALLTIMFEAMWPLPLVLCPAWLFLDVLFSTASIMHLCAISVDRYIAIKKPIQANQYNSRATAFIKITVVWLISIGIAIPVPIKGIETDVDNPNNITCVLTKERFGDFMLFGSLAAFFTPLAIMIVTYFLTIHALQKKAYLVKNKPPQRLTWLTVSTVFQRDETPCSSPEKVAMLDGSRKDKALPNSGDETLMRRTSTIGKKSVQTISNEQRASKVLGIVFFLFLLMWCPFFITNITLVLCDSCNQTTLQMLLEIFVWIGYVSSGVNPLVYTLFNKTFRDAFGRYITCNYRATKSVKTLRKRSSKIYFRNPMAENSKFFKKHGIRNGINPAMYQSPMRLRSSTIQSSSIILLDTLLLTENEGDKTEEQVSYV

`O=C1COc2ccc(OCCCCN3CCN(c4cccc(Cl)c4Cl)CC3)cc2N1` [PCC0104005]: the Ki at human 5-HT2A receptor worked out at 5.1 nM; at human 5-HT2B receptor it was 0.34 nM; on human 5-HT2C receptor it was 36 nM; on human 5-HT6 receptor, 85 nM; on human 5-HT7 receptor, 5 nM; at human α1A receptor, 8.3 nM. Besides, the Ki came to 3.2 nM at human α1B receptor and 1.1 nM on human H1 receptor. In addition, the “number of head twitches” value in data set [1] (3.0 mg/kg oral 1 h before test) was determined as 24.86 ± 4.35; in data set [1] (6.0 mg/kg oral 1 h before test), 10.71 ± 4.81; in [1] ([…] oral 1 h before test) it was 20.17 ± 2.70. Further, the “forelimb catalepsy duration (longest)” value with mice (2 mg/kg) worked out at 22.56 ± 2.65 s; in the data set on mice (4 mg/kg) it was 25.89 ± 3.59 s; in the data set with mice (8 mg/kg) it was 21.23 ± 2.53 s.

These data come from paper PMC5931996 (Scientific Reports, 2018).
